Source: the NIST ThermoML archive (doi:10.1021/je400529k)

Legend:
[1] = refractive index (Na D-line) (dimensionless); xn = mol fraction of the nth substance listed; conditions: 101 kPa, Liquid, Standard Abbe refractometry
[2] = xn = mol fraction of the nth substance listed; conditions: 101 kPa, Liquid; for viscosity: Capillary tube (Ostwald / Ubbelohde) method; for mass density: Vibrating tube method

C1C[C@@H]2[C@H]3CC[C@H](C3)[C@@H]2C1 [exo-tetrahydrodicyclopentadiene] + C1CCCCC1
Conditions | mass density, 293.15 K [kg/m3] | mass density, 298.15 K [kg/m3] | refractive index, 293.15 K | refractive index, 303.15 K | refractive index, 313.15 K | viscosity, 293.15 K [mPa·s] | viscosity, 298.15 K [mPa·s]
[1], x1 = 0.0998 | – | – | 1.4357 | 1.4305 | 1.4238 | – | –
[1], x1 = 0.2006 | – | – | 1.4426 | 1.4373 | 1.4319 | – | –
[1], x1 = 0.3003 | – | – | 1.4495 | 1.4449 | 1.439 | – | –
[1], x1 = 0.3996 | – | – | 1.4564 | 1.4512 | 1.4456 | – | –
[1], x1 = 0.4987 | – | – | 1.4624 | 1.4582 | 1.453 | – | –
[1], x1 = 0.6005 | – | – | 1.4683 | 1.4633 | 1.4583 | – | –
[1], x1 = 0.7002 | – | – | 1.4732 | 1.4689 | 1.4642 | – | –
[1], x1 = 0.8008 | – | – | 1.4781 | 1.4739 | 1.4689 | – | –
[1], x1 = 0.9 | – | – | 1.4829 | 1.4789 | 1.4737 | – | –
[1], x1 = 1 | – | – | 1.4874 | 1.4831 | 1.4786 | – | –
[2], x1 = 0.0998 | 799.53 | 794.92 | – | – | – | 1.13 | 1.032
[2], x1 = 0.2006 | 819.11 | 814.56 | – | – | – | 1.296 | 1.18
[2], x1 = 0.3003 | 837.1 | 832.65 | – | – | – | 1.462 | 1.327
[2], x1 = 0.3996 | 853.82 | 849.45 | – | – | – | 1.633 | 1.481
[2], x1 = 0.4987 | 869.42 | 865.15 | – | – | – | 1.814 | 1.645
[2], x1 = 0.6005 | 884.43 | 880.23 | – | – | – | 2.016 | 1.828
[2], x1 = 0.7002 | 898.3 | 894.2 | – | – | – | 2.231 | 2.024
[2], x1 = 0.8008 | 911.5 | 907.48 | – | – | – | 2.463 | 2.236
[2], x1 = 0.9 | 923.87 | 919.92 | – | – | – | 2.72 | 2.466
[2], x1 = 1 | 935.72 | 931.84 | – | – | – | 2.992 | 2.71
